Nine molecules from patent publication US20070037823A1, “Substituted piperidine and piperazine derivatives as melanocortin-4 receptor modulators” (priority 2003, published 2007) can be followed below.

Molecules are shown by their SMILES.

By IC50 is commonly meant the concentration that inhibits the measured activity by half. Low values mean inhibition by little substance, high ones a need for much substance. Broadly, the EC50 is the concentration at which the effect is half-maximal.

Assay [1] concerns the target T1, hMC4-R (Homo sapiens, UniProt P32245).
T1 construct: expressed in transfected cells; host or cells: HEK293 cells
Description: Membrane binding assay, fluorescence labeled NDP-alpha-MSH competition (fluorescence polarization). The settings on record: HEK293 cell membrane preparations. As to the method: A membrane binding assay is used to identify competitive inhibitors of fluorescence labeled NDP-alpha-MSH binding to HEK293 cell membrane preparations expressing human melanocortin receptors.
The test compound or unlabeled NDP-alpha-MSH is dispensed at varying concentrations to a 384 well microtiter plate. Fluorescence labeled NDP-alpha-MSH is dispensed at a single concentration, followed by addition of membrane preparations. The plate is incubated for 5 h at room temperature.
The degree of fluorescence polarization is determined with a fluorescence polarization microplate reader.
(In general: Fluorescence polarisation rises when a labelled molecule tumbles more slowly, as on binding a larger partner.)

Assay [2] addresses T1, hMC4-R. Nature of the assay: Functional cellular cAMP assay in HEK293 cells (fluorescence polarization). The conditions noted are these: for % activation functional assay: cAMP compared to stimulation with NDP-alpha-MSH; for EC50: HEK293 cells, cAMP production. The assay is classed as cell-based. As to the method:
A functional cellular assay, based on competition between unlabeled cAMP and a fixed quantity of fluorescence labeled cAMP for a limited number of binding sites on a cAMP specific antibody, is used to discriminate melanocortin receptor agonists from antagonists by fluorescence polarization.
HEK293 cells expressing one of the human melanocortin receptors are transferred to 384 well microtiter plates, an appropriate amount of cAMP antibody is added, followed by the addition of different concentrations of the test compound to effect cAMP production. Cells are lysed and a fluorescence labeled cAMP conjugate is dispensed. The plate is read on a fluorescence polarization microplate reader and the amount of cAMP produced as a response to a test compound is compared to the production of CAMP resulting from stimulation with NDP-alpha-MSH. […]
(In general: cAMP levels reflect the balance of adenylyl cyclase and phosphodiesterase activity.)

The next assay concerns male Wistar rats. Nature of the assay: Spontaneous feeding paradigm (food intake). Type of assay: in vivo, rat. The conditions noted are these: 10 mg/kg p.o.; for increase in cumulative food intake: compared to vehicle control. The protocol: Food intake in rats is measured after i.p. or p.o. administration of the test compound (see e.g. Chen, A. S. et al. Transgenic Res April 2000; 9(2):145-54).
3-4 Hours following the onset of the light-phase, individually housed, male Wistar rats (200-300 g) receive an ip injection or po application of test compound or vehicle in an administration volume of 2 ml/kg. Following the administration of substances (1-30 mg/kg), a pre-weighed amount of normal laboratory chow is placed into the food hopper. Food remaining is measured by hand at 1-2 hour intervals for up to 8 hours. Differences in food intake between test-compound and vehicle-treated rats are evaluated.

The mark [3] stands for this setting: 2 hours following administration.
The mark [4] stands for this setting: 4 hours following administration.

T1 sequence (P32245 whole entry): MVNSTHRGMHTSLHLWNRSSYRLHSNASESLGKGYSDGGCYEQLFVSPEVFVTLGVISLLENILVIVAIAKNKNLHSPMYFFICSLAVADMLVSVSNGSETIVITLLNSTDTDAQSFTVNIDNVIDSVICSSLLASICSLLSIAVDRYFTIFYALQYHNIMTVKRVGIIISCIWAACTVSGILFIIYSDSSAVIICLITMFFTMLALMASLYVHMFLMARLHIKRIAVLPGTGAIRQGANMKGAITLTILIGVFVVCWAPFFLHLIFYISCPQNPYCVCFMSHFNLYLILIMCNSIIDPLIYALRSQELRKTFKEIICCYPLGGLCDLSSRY

On to `CC(C)(C)NC(=O)C1(C2CCCCC2)CCN(C[C@H](Cc2ccc(Cl)cc2)NC(=O)[C@H]2Cc3ccccc3CN2)CC1.Cl` [Example 1], for which the IC50 at hMC4-R [1] amounted to 0.7 µM. The “% activation functional assay” value on hMC4-R [2] is reported as “no activation”. In the assay with male Wistar rats, the “activity in the spontaneous feeding paradigm (increase in food intake)” value is recorded as “active”. The results for the “increase in cumulative food intake” value in the assay with male Wistar rats (setting [3]), with male Wistar rats (setting [4]) and in the assay on male Wistar rats (6 hours following administration) were 2700%, 700% and 175%, respectively.

`CC(C)(C)NC(=O)C1(C2CCCCC2)CCN(C[C@@H](Cc2ccc(Cl)cc2)NC(=O)[C@H]2Cc3ccccc3CN2)CC1.Cl` [Example 2] registered a half-inhibitory concentration (IC50) on hMC4-R [1] of 0.72 µM. Also, at hMC4-R [2], the EC50 stood at 3.1 µM and the “% activation functional assay” value stood at 80%.

Consider `CC(C)(C)NC(=O)C1(C2CCCCC2)CCN(C[C@@H](Cc2ccc(Cl)cc2)NC(=O)[C@@H]2Cc3ccccc3CN2)CC1.Cl` [Example 3], for which the IC50 on hMC4-R [1] stood at 0.42 µM. Moreover, the “% activation functional assay” value on hMC4-R [2] is reported as “no activation”.

For the molecule `CC(C)(C)NC(=O)C1(C2CCCCC2)CCN(CC[C@@H](Cc2ccc(Cl)cc2)NC(=O)[C@H]2Cc3ccccc3CN2)CC1.Cl` [Example 5], at hMC4-R [1], the IC50 is 2.5 µM. Besides, at hMC4-R [2], the midpoint of the response, the EC50, lay at 8 µM and the “% activation functional assay” value is recorded as 52%.

Take `CC(C)(C)NC(=O)C1(C2CCCCC2)CCN(CC[C@H](Cc2ccc(Cl)cc2)NC(=O)[C@H]2Cc3ccccc3CN2)CC1.Cl` [Example 6]: the IC50 at hMC4-R [1] worked out at 1 µM. Further, the “% activation functional assay” value at hMC4-R [2] was “no activation”.

Consider `CC(C)(C)NC(=O)C1(C2CCCCC2)CCN(C[C@H](Cc2ccc(Cl)cc2)NC(=O)c2cc(=O)c3ccccc3o2)CC1` [Example 28], for which the half-inhibitory concentration (IC50) at hMC4-R [1] came out at 2.3 µM. Further, the “% activation functional assay” value at hMC4-R [2] was “no activation”.

Consider `CC(C)(C)NC(=O)C1(C2CCCCC2)CCN(C[C@@H](Cc2ccc(Cl)cc2)NC(=O)c2cc(=O)c3ccccc3o2)CC1` [Example 29], for which the IC50 on hMC4-R [1] was determined as 2.6 µM. Also, the “% activation functional assay” value on hMC4-R [2] is recorded as “no activation”.

`CC(C)(C)NC(=O)C1(C2CCCCC2)CCN(CC[C@@H](Cc2ccc(Cl)cc2)NC(=O)c2cc(=O)c3ccccc3o2)CC1` [Example 30] registered an IC50 at hMC4-R [1] of 2.1 µM. The “% activation functional assay” value on hMC4-R [2] is listed as “no activation”.

Consider `CC(C)(C)NC(=O)C1(C2CCCCC2)CCN(CC[C@H](Cc2ccc(Cl)cc2)NC(=O)c2cc(=O)c3ccccc3o2)CC1` [Example 31], for which, on hMC4-R [1], the half-maximal inhibitory concentration (IC50) worked out at 0.061 µM. In addition, the “% activation functional assay” value at hMC4-R [2] is “no activation”. In the assay with male Wistar rats, the “activity in the spontaneous feeding paradigm (increase in food intake)” value was “active”. In addition, the “increase in cumulative food intake” value with male Wistar rats (setting [3]) came to 1100%; in the assay with male Wistar rats (setting [4]), 380%.
